Test results reported in US6716833B2, “Acetylenic α-amino acid-based sulfonamide hydroxamic acid tace inhibitors” (priority 1999, dated 2004).
Like-named read-outs stand apart in the source and are kept apart here.

What was measured:
Format in all cases: biochemical
MMP-13 = MMP-13 (Homo sapiens, UniProt P45452); assay: MMP-13 inhibition (thiopeptide or fluorescent peptide substrate)
MMP-9 = MMP-9 (Homo sapiens, UniProt P14780); assay: MMP-9 inhibition (thiopeptide or fluorescent peptide substrate); conditions: read-out: MMP-9 IC50
MMP-9, sequence (P14780 94-707): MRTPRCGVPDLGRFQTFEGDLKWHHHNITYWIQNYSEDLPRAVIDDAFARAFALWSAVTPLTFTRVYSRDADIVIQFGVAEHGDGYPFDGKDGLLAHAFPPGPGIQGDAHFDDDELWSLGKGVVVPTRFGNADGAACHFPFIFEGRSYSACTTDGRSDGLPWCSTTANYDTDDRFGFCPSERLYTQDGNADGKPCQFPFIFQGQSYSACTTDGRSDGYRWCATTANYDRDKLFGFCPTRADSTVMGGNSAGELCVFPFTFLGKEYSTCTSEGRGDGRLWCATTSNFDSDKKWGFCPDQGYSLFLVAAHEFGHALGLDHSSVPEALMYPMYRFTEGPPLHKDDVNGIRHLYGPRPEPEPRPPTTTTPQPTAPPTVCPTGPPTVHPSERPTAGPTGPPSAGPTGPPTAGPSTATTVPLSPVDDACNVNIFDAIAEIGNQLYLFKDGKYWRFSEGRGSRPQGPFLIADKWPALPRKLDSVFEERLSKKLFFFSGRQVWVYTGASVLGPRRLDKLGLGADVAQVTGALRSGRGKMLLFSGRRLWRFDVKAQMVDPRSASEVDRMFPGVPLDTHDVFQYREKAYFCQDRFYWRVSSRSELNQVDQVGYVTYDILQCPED

MMP-1 = target: T1, MMP-1 (Homo sapiens, UniProt P03956); assay: MMP-1 inhibition (thiopeptide or fluorescent peptide substrate); conditions: read-out: MMP-1 IC50
T1 sequence (P03956 100-469): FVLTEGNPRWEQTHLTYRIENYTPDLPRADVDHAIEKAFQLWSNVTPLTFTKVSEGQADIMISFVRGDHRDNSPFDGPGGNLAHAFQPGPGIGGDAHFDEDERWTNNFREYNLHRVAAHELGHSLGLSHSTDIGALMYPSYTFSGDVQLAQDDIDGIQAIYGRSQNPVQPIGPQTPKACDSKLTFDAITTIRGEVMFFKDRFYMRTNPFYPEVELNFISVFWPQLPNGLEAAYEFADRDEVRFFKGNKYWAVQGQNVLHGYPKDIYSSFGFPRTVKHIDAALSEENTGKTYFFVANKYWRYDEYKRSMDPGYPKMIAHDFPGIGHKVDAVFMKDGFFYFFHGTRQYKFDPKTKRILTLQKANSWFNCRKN
Experimental: The enzyme activity is measured by the rate of the color increase. The thiopeptide substrate is made up fresh as a 20 mM stock in 100% DMSO and the DTNB is dissolved in 100% DMSO as a 100 mM stock and stored in the dark at room temperature. Both the substrate and DTNB are diluted together to 1 mM with substrate buffer (50 mM HEPES pH 7.5, 5 mM CaCl2) before use. The stock of enzyme is diluted with buffer (50 mM HEPES, pH 7.5, 5 mM CaCl2, 0.02% Brij) to the desired final concentration.
Alternatively, a fluorescent peptide substrate is used. In this test procedure, the peptide substrate contains a fluorescent group and a quenching group. Upon cleavage of the substrate by an MMP, the fluorescence that is generated is quantitated on the fluorescence plate reader. The assay is run in HCBC assay buffer (50 mM HEPES, pH 7.0, 5 mM Ca^+2, 0.02% Brij, 0.5% Cysteine), with human recombinant MMP-1, MMP-9, or MMP-13. […] For the assay, substrate and enzymes are diluted in HCBC buffer to the desired concentrations. Compounds are added to the 96 well plate containing enzyme and the reaction is started by the addition of substrate.
For either the thiopeptide or fluorescent peptide test procedures, the slope of the line is calculated and represents the reaction rate. The linearity of the reaction rate is confirmed (r^2>0.85). The mean (x±sem) of the control rate is calculated and compared for statistical significance (p<0.05) with drug-treated rates using Dunnett's multiple comparison test.

[1] = target: TNF-α converting enzyme (TACE) (Homo sapiens, UniProt P78536); assay: TACE inhibition (fluorescent peptidyl substrate); conditions: read-out: TACE IC50
TNF-α converting enzyme (TACE), sequence (P78536 215-824, species assumed): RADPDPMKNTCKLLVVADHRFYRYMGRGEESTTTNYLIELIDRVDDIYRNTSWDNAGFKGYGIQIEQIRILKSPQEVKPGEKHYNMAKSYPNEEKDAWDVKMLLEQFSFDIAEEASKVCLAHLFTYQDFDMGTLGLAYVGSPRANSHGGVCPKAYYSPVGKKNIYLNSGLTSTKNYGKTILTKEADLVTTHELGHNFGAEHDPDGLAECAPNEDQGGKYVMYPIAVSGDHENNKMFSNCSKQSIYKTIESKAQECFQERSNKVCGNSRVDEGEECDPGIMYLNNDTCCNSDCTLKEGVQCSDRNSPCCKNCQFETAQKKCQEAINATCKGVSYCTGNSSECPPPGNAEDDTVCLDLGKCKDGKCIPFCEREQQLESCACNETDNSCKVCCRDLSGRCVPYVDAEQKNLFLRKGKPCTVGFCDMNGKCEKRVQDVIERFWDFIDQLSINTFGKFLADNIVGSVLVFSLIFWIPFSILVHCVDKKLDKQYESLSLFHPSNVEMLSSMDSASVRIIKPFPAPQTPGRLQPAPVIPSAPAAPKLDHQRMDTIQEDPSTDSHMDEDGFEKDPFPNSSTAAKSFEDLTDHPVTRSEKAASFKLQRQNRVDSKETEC

[2] = Table 10, read-out: MMP-13 IC50

Structure (SMILES) | IC50 (MMP-13; read-out: MMP-13 IC50) [nM] | IC50 (MMP-9) [nM] | IC50 (MMP-1) [nM] | IC50 [1] [nM] | IC50 (MMP-13; MMP-13 IC50) [nM] | IC50 (MMP-13; [2]) [nM] | IC50 (MMP-9; Table 10) [nM] | IC50 (MMP-1; Table 10) [nM] | IC50 ([1]; Table 10) [nM]
CC#CCOc1ccc(S(=O)(=O)N(C)[C@@H](C(=O)NO)c2ccc(O[C@H]3CCNC3)cc2)cc1 [Example 190, (2R)-2-[{[4-(2-Butynyloxy)phenyl]sulfonyl}(methyl)amino]-N-hydroxy-2-{4-[(3S)-pyrrolidinyloxy]phenyl}ethanamide] | 29 | 37 | 527 | 32 | – | – | – | – | –
CC#CCOc1ccc(S(=O)(=O)N[C@@H](C(=O)NO)c2ccc(OCCNC(=O)OC(C)(C)C)cc2)cc1 [Example 199, tert-Butyl 2-{4-[(1R)-1-({[4-(2-Butynyloxy)phenyl]sulfonyl}amino)-2-(hydroxyamino)-2-oxoethyl]phenoxy}ethylcarbamate] | 139 | 862 | ~10000 | 42 | – | – | – | – | –
CC#CCOc1ccc(S(=O)(=O)N[C@@H](C(=O)NO)c2ccc(OCCN)cc2)cc1 [Example 200, (2R)-2-[4-(2-Aminoethoxy)phenyl]-2-({[4-(2-butynyloxy)phenyl]sulfonyl}amino)-N-hydroxyethanamide] | 176 | 518 | ~10000 | 15 | – | – | – | – | –
CC#CCOc1ccc(S(=O)(=O)N[C@@H](C(=O)NO)c2ccc(OCCNC(C)=O)cc2)cc1 [Example 201, (2R)-2-{4-[2-(Acetylamino)ethoxy]phenyl}-2-({[4-(2-butynyloxy)phenyl]sulfonyl}amino)-N-hydroxyethanamide] | 73 | 569 | ~10000 | 9.4 | – | – | – | – | –
CC#CCOc1ccc(S(=O)(=O)N(C)C(C(=O)NO)c2ccccc2)cc1 (stereo not shown) [Example 211, 2-[{[4-(2-Butynyloxy)phenyl]sulfonyl}(methyl)amino]-N-hydroxy-2-phenylacetamide] | 20 | 43 | 496 | 8 | – | – | – | – | –
CC#CCOc1ccc(S(=O)(=O)N2CCN(C(=O)N3CCOCC3)CC2C(=O)NO)cc1 (stereo not shown) [Example 215, 1-(4-but-2-ynyloxy-Benzenesulfonyl)-4-(morpholine-4-carbonyl)-piperazine-2-carboxylic Acid Hydroxyamide] | 39 | 60 | 695 | 35 | – | – | – | – | –
CC#CCOc1ccc(S(=O)(=O)N2CCN(C(=O)N3CCCC3)CC2C(=O)NO)cc1 (stereo not shown) [Example 217, 1-(4-but-2-ynyloxy-Benzenesulfonyl)-4-(pyrrolidine-1-carbonyl)-piperazine-2-carboxylic Acid Hydroxyamide] | 83 | 209 | 1250 | 28 | – | – | – | – | –
CC#CCOc1ccc(S(=O)(=O)N2CCN(C(=O)N(C(C)C)C(C)C)CC2C(=O)NO)cc1 (stereo not shown) [Example 218, 4-(4-but-2-ynyloxy-Benzenesulfonyl)-piperazine-1,3-dicarboxylic Acid 1-Diisopropylamide 3-Hydroxyamide] | 213 | 822 | 3290 | 49 | – | – | – | – | –
CC#CCOc1ccc(S(=O)(=O)N2CCN(C(=O)N(C)c3ccccc3)CC2C(=O)NO)cc1 (stereo not shown) [Example 220, 4-(4-but-2-ynyloxy-Benzenesulfonyl)-piperazine-1,3-dicarboxylic Acid 3-Hydroxyamide 1-(Methyl-phenyl-amide)] | 62 | 561 | 1640 | 20 | – | – | – | – | –
CC#CCOc1ccc(S(=O)(=O)N2CCN(C(=O)Nc3ccc(OC)cc3)CC2C(=O)NO)cc1 (stereo not shown) [Example 221, 4-{[4-(2-Butynyloxy)phenyl]sulfonyl}-N-3-hydroxy-N-1-(4-methoxyphenyl)-1,3-piperazinedicarboxamide] | 182 | 576 | 1510 | 69 | – | – | – | – | –
CC#CCOc1ccc(S(=O)(=O)N2CCN(C(=O)Nc3ccc(F)cc3)CC2C(=O)NO)cc1 (stereo not shown) [Example 222, 4-{[4-(2-Butynyloxy)phenyl]sulfonyl}-N-1-(4-fluorophenyl)-N-3-hydroxy-1,3-piperazinedicarboxamide] | 75 | 173 | 941 | 30 | – | – | – | – | –
CC#CCOc1ccc(S(=O)(=O)N2CCN(C(=O)Nc3cc(Cl)cc(Cl)c3)CC2C(=O)NO)cc1 (stereo not shown) [Example 223, 4-{[4-(2-Butynyloxy)phenyl]sulfonyl}-N-1-(3,5-dichlorophenyl)-N-3-hydroxy-1,3-piperazinedicarboxamide] | 153 | 642 | 1720 | 83 | – | – | – | – | –
CC#CCOc1ccc(S(=O)(=O)N2CCN(C(C)=O)CC2C(=O)NO)cc1 (stereo not shown) [Example 224, 4-Acetyl-1-(4-but-2-ynyloxy-benzenesulfonyl)-piperazine-2-carboxylic Acid Hydroxyamide] | 22 | 88 | 357 | 13 | – | – | – | – | –
CC#CCOc1ccc(S(=O)(=O)N2CCN(C(=O)CC)CC2C(=O)NO)cc1 (stereo not shown) [Example 225, 1-(4-but-2-ynyloxy-Benzenesulfonyl)-4-propionyl-piperazine-2-carboxylic Acid Hydroxyamide] | 230 | 727 | 1000 | 17 | – | – | – | – | –
CC#CCOc1ccc(S(=O)(=O)N2CCN(C(=O)CNC(=O)OC(C)(C)C)CC2C(=O)NO)cc1 (stereo not shown) [Example 229, {2-[4-(4-but-2-ynyloxy-Benzenesulfonyl)-3-hydroxycarbamoyl-piperazin-1-yl]-2-oxo-ethyl}-carbamic Acid tert-Butyl Ester] | 85 | 322 | 1010 | 64 | – | – | – | – | –
CC#CCOc1ccc(S(=O)(=O)N2CCN(C(=O)CN)CC2C(=O)NO)cc1 (stereo not shown) [Example 230, 4-Aminoacetyl-1-(4-but-2-ynyloxy-benzenesulfonyl)-piperazine-2-carboxylic Acid Hydroxyamide] | 410 | 1230 | 8500 | 127 | – | – | – | – | –
CC#CCOc1ccc(S(=O)(=O)N2CCN(C(=O)C3(C)COC(C)(C)OC3)CC2C(=O)NO)cc1 (stereo not shown) [Example 231, 1-{[4-(2-Butynyloxy)phenyl]sulfonyl}-N-hydroxy-4-[(2,2,5-trimethyl-1,3-dioxan-5-yl)carbonyl]-2-piperazinecarboxamide] | 355 | 1110 | 2450 | 59 | – | – | – | – | –
CC#CCOc1ccc(S(=O)(=O)N2CCN(C(=O)C(C)(CO)CO)CC2C(=O)NO)cc1 (stereo not shown) [Example 232, 1-{[4-(2-Butynyloxy)phenyl]sulfonyl}-N-hydroxy-4-[3-hydroxy-2-(hydroxymethyl)-2-methylpropanoyl]-2-piperazinecarboxamide] | 289 | 785 | 1680 | 44 | – | – | – | – | –
CC#CCOc1ccc(S(=O)(=O)N2CCN(Cc3ccc(Br)cc3)CC2C(=O)NO)cc1 (stereo not shown) [Example 233, 4-(4-Bromo-benzyl)-1-(4-but-2-ynyloxy-benzenesulfonyl)-piperazine-2-carboxylic Acid Hydroxyamide] | 55 | 69 | 2830 | 184 | – | – | – | – | –
CC#CCOc1ccc(S(=O)(=O)N2CCN(Cc3cccnc3)CC2C(=O)NO)cc1 (stereo not shown) [Example 234, 1-(4-but-2-ynyloxy-Benzenesulfonyl)-4-pyridin-3-ylmethyl-piperazine-2-carboxylic Acid Hydroxyamide] | – | 108 | 3200 | 28 | 49 | – | – | – | –
CC1(C)SCCN(S(=O)(=O)c2ccc(OCC#CCCOC3CCCCO3)cc2)C1C(=O)NO (stereo not shown) [Example 243, N-Hydroxy-2,2-dimethyl-4-[(4-{[5-(tetrahydro-2H-pyran-2-yloxy)-2-pentynyl]oxy}phenyl)sulfonyl]-3-thiomorpholine Carboxamide] | – | – | – | – | – | 4.1 | 178 | 194 | 87
CC1(C)SCCN(S(=O)(=O)c2ccc(OCC#CCCO)cc2)C1C(=O)NO (stereo not shown) [Example 244, N-Hydroxy-4-({4-[(5-hydroxy-2-pentynyl)oxy]phenyl}sulfonyl)-2,2-dimethyl-3-thiomorpholine Carboxamide] | – | – | – | – | – | 14 | 72 | 35 | 62
CC(C)(C)OC(=O)NCCC#CCOc1ccc(S(=O)(=O)N2CCSC(C)(C)C2C(=O)NO)cc1 (stereo not shown) [Example 245, tert-Butyl 5-[4-({3-[(Hydroxyamino)carbonyl]-2,2-dimethyl-4-thiomorpholinyl}sulfonyl)phenoxy]-3-pentynylcarbamate] | – | – | – | – | – | 6.6 | 2380 | 300 | 112
CC1(C)SCCN(S(=O)(=O)c2ccc(OCC#CCCN)cc2)C1C(=O)NO (stereo not shown) [Example 246, 4-({4-[(5-Amino-2-pentynyl)oxy]phenyl}sulfonyl)-N-hydroxy-2,2-dimethyl-3-thiomorpholine Carboxamide] | – | – | – | – | – | 27 | 41 | 1050 | 138
CC1(C)SCCN(S(=O)(=O)c2ccc(OCC#CCOCc3ccccc3)cc2)C1C(=O)NO (stereo not shown) [Example 247, 4-[(4-{[4-(Benzyloxy)-2-butynyl]oxy}phenyl)sulfonyl]-N-hydroxy-2,2-dimethyl-3-thiomorpholine Carboxamide] | – | – | – | – | – | 2.5 | 108 | 53 | 160
